Patent US20170246206A1, “Calcium Formate for Use as a Dietary Supplement” (Wisconsin Alumni Research Foundation, priority 1999, published 2017)
Like-named read-outs stand apart in the source and are kept apart here.

Experiments:
[1] = Excerpt: Twenty 15-day-old weanling rats from Holzmann Company were placed on a an adequate synthetic diet called “Diet 11” (Suda, T., et al., J. Nutr. 100:1049-1052, 1970). This diet is supplemented with vitamins A, D, E and K as described in that paper. Therefore, these are vitamin D-sufficient animals.
The animals were then placed on a basal diet that contains 0.02% calcium, i.e. an extremely low calcium diet. These animals served as controls. Another group were placed on the same diet containing calcium formate, providing calcium at 0.25% of the diet. Another group was supplied calcium formate at 0.47% calcium in the diet, and another group was provided 0.47% calcium in the form of calcium carbonate. Growth of the animals reflects the ability of the animals to utilize calcium. […] 57:449-468 (1955).

Remark: listed apart in the source
[2] = 1% Ca formate in diet, 1 week on diet
[3] = 1% Ca formate in diet, 2 weeks on diet
[4] = 2% Ca formate in diet, 1 week on diet
[5] = 2% Ca formate in diet, 2 weeks on diet
[6] = 3% Ca formate in diet, 1 week on diet
[7] = 3% Ca formate in diet, 2 weeks on diet

For `O=C([O-])[O-].[Ca+2]` [Calcium Carbonate, calcium carbonate, reference compound], the “Average Body Weight ± S.E.M for 5 Rats” value ([1]; 0.47% Ca in diet, day 7) was 48.6 ± 4.9 Grams, the “Average Body Weight ± S.E.M for 5 Rats” value ([1]; 0.47% Ca in diet, day 14) was 80.4 ± 10.4 Grams and the “Average Body Weight ± S.E.M for 5 Rats” value ([1]; 0.47% Ca in diet, day 21) was 126.2 ± 11 Grams.

With `O=C[O-].O=C[O-].[Ca+2]` [Calcium Formate, calcium formate] the “Average Body Weight ± S.E.M for 5 Rats” value ([1]; 0.25% Ca in diet, day 7) was 54.3 ± 4.0 Grams, the “Average Body Weight ± S.E.M for 5 Rats” value ([1]; 0.25% Ca in diet, day 14) was 84.6 ± 5.5 Grams and the “Average Body Weight ± S.E.M for 5 Rats” value ([1]; 0.25% Ca in diet, day 21) was 131.0 ± 5.7 Grams. The “Growth in comparison to other treatment groups” value ([1]; 0.25% calcium as the formate) was “slightly better growth”, the “Average Body Weight ± S.E.M for 5 Rats” value ([1]; 0.47% Ca in diet, day 7) was 51.0 ± 10.6 Grams and the “Average Body Weight ± S.E.M for 5 Rats” value ([1]; 0.47% Ca in diet, day 14) was 78.0 ± 19^ Grams. The “Average Body Weight ± S.E.M for 5 Rats” value ([1]; 0.47% Ca in diet, day 21) was 127 ± 11 Grams, the “Ability to supply calcium to experimental rats” value ([1]; compared with calcium carbonate) was “at least equal to calcium carbonate” and the “Serum (mean ± SEM)” value [2] was 3.25 ± .31 mg %. The Weight [2] was 229 ± 5.5, the “Serum Ca (mean ± SEM)” value [3] was 14.0 ± .51 mg % and the Weight [3] was 211 ± 3.8. The “Serum (mean ± SEM)” value [4] was 2.50 ± .32 mg %, the Weight [4] was 211 ± 6.3 and the “Serum (mean ± SEM)” value [5] was 2.7 ± .24 mg %. For the same compound, the “Serum Ca (mean ± SEM)” value [5] was 12.8 ± .94 mg %, the Weight [5] was 198 ± 5.2 and the “Difference in serum phosphorus between dose levels” value (2% vs 3% calcium formate in diet) was “little difference in serum phosphorus”. The “Serum (mean ± SEM)” value [6] was 2.5 ± .20 mg %, the Weight [6] was 194 ± 6.5 and the “Serum (mean ± SEM)” value [7] was 2.9 ± 0.8 mg %. For the same compound, the “Serum Ca (mean ± SEM)” value [7] was 12.9 ± 1.3 mg %, the Weight [7] was 150 ± 8.0 and the “Serum phosphorus compared with control rats” value (all rats supplied with calcium formate (1-3% of diet)) was “less serum phosphorus than control rats”.
